Here are results for 16 compounds from PubChem BioAssay (NCI).

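The compound was tested at five concentrations on cells cultured in 96-well plates, with a 48-hour exposure period. TGI marks complete inhibition of growth.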

Test systems include CCRF-CEM leukemia; HS 578T breast; SNB-75 CNS; OVCAR-4 ovarian; 786-0 renal; U251 CNS; IGROV1 ovarian; MDA-MB-435; HCC-2998 colon; T-47D breast.
Assay in all cases: DTP human tumour cell line panel, 48 h

What is called TGI is the concentration giving total growth inhibition. High values mean less potent growth arrest, low ones more potent growth arrest. For the compound `COc1cc2c(cc1C)NC(=O)/C2=C/c1c(Cl)n(C)c2ccccc12`, the TGI is > 100 µM in the test with CCRF-CEM leukemia; 12.8 µM with HS 578T breast; 13.4 µM in the test on SNB-75 CNS; 25 µM in the test with OVCAR-4 ovarian; 30.7 µM in the test with 786-0 renal; 28 µM in the test on U251 CNS. Moreover, the total growth inhibition concentration (TGI) worked out at 17.1 µM with IGROV1 ovarian, 3.69 µM in the test on MDA-MB-435, 20.1 µM with HCC-2998 colon and 19.3 µM in the test with T-47D breast.
Turning to `COc1ccc(N=Nc2ccc3oc(=O)c(C(=O)Nc4ccc(OC)cc4)cc3c2)cc1`, the TGI was > 100 µM with CCRF-CEM leukemia; 89.9 µM in the test with HS 578T breast; 54.3 µM with SNB-75 CNS; 75.3 µM with OVCAR-4 ovarian; 44.5 µM in the test with 786-0 renal; 30 µM with U251 CNS. Further, the concentration for total growth inhibition (TGI) is 44 µM in the test with IGROV1 ovarian, 54.8 µM in the test on MDA-MB-435, 45.3 µM in the test on HCC-2998 colon and 29.8 µM in the test with T-47D breast.
Turning to `COc1ccc(/C=N/NC(=O)c2ccccc2Nc2ccccc2C(=O)N/N=C/c2ccc(OC)c(OC)c2)cc1OC`, the TGI with CCRF-CEM leukemia, with HS 578T breast, in the test on SNB-75 CNS, in the test with OVCAR-4 ovarian, in the test with 786-0 renal and in the test on U251 CNS was > 100 µM in each case. Further, the total growth inhibition concentration (TGI) in the test with IGROV1 ovarian, in the test with MDA-MB-435, with HCC-2998 colon and in the test with T-47D breast was > 100 µM each time.
With `O=C1CSC(c2ccc(Cl)cc2)N1c1ccc(-n2c(-c3ccccc3)nc3ccccc3c2=O)cc1` (stereo not given), the TGI is > 100 µM in the test on CCRF-CEM leukemia; > 100 µM in the test with HS 578T breast; 69 µM in the test with SNB-75 CNS; 41 µM with OVCAR-4 ovarian; > 100 µM in the test on 786-0 renal; > 100 µM with U251 CNS. Moreover, the TGI with IGROV1 ovarian, in the test with MDA-MB-435, in the test on HCC-2998 colon and with T-47D breast was > 100 µM in each case.
As to `CC1(C)CC(=O)C2=C(C1)OC1=C(CC(C)(C)CC1=O)C2c1ccccc1Cl` (stereo not given), the total growth inhibition concentration (TGI) with CCRF-CEM leukemia, in the test on HS 578T breast, in the test with SNB-75 CNS, in the test with OVCAR-4 ovarian, in the test on 786-0 renal and in the test on U251 CNS was > 100 µM each time. Further, the TGI in the test on IGROV1 ovarian, with MDA-MB-435, in the test on HCC-2998 colon and with T-47D breast was > 100 µM throughout.
`O=c1n(CCO)nc2n1CCCN2`: the TGI in the test on CCRF-CEM leukemia, in the test with HS 578T breast, in the test with SNB-75 CNS, in the test on OVCAR-4 ovarian, in the test with 786-0 renal and with U251 CNS was > 100 µM each time. Besides, the total growth inhibition concentration (TGI) in the test with IGROV1 ovarian, in the test with MDA-MB-435, in the test on HCC-2998 colon and with T-47D breast was > 100 µM throughout.
`N#Cc1c(C#N)c(-c2ccco2)n(/N=C/c2ccco2)c1N`: the TGI was > 100 µM in the test on CCRF-CEM leukemia; 71.2 µM in the test with HS 578T breast; 40 µM in the test on SNB-75 CNS; > 100 µM with OVCAR-4 ovarian; > 100 µM in the test with 786-0 renal; 60.3 µM with U251 CNS. For the same compound, the concentration for total growth inhibition (TGI) with IGROV1 ovarian, in the test on MDA-MB-435, in the test with HCC-2998 colon and in the test on T-47D breast was > 100 µM throughout.
Consider `COC(=O)[C@H]1ON2O[C@H](OC3CCCC[C@@H]3c3ccccc3)C[C@@H]3CC[C@H]1[C@@]32C` (stereo not given in full), for which the TGI in the test on CCRF-CEM leukemia, in the test with HS 578T breast, in the test with SNB-75 CNS, with OVCAR-4 ovarian, with 786-0 renal and with U251 CNS was > 100 µM each time. Besides, the total growth inhibition concentration (TGI) in the test with IGROV1 ovarian, with MDA-MB-435, with HCC-2998 colon and in the test on T-47D breast was > 100 µM throughout.
As for `O=C(C(=O)n1ccc2ccccc21)c1c[nH]c2ccccc12`, the TGI in the test on CCRF-CEM leukemia, in the test on HS 578T breast, in the test with SNB-75 CNS, in the test with OVCAR-4 ovarian, in the test on 786-0 renal and in the test with U251 CNS was > 10 µM in each case. The concentration for total growth inhibition (TGI) in the test with IGROV1 ovarian, with MDA-MB-435, in the test on HCC-2998 colon and in the test with T-47D breast was > 10 µM throughout.
Consider `COc1cccc(C(=O)C(O)c2cccc(OC)c2OC)c1OC` (stereo not given), for which the TGI in the test on CCRF-CEM leukemia, with HS 578T breast, in the test with SNB-75 CNS, with OVCAR-4 ovarian, with 786-0 renal and in the test on U251 CNS was > 100 µM each time. Also, the TGI in the test on IGROV1 ovarian, in the test on MDA-MB-435, with HCC-2998 colon and in the test on T-47D breast was > 100 µM in each case.
As to `COc1cc(C2c3cc4c(c(O)c3C(=O)C3CCC(=O)N32)OCO4)cc(OC)c1OC` (stereo not given), the TGI in the test with CCRF-CEM leukemia, in the test on HS 578T breast, in the test on SNB-75 CNS, in the test with OVCAR-4 ovarian, with 786-0 renal and in the test with U251 CNS was > 100 µM each time. Further, the concentration for total growth inhibition (TGI) in the test with IGROV1 ovarian was > 100 µM; in the test on MDA-MB-435, 58.9 µM; in the test on HCC-2998 colon, > 100 µM; in the test on T-47D breast, > 100 µM.
In the case of `C[N+]12C=CC=C1C(N1CCCC1)c1sc(-c3ccc(Cl)cc3)cc12` (stereo not given), the TGI with CCRF-CEM leukemia came to 62.8 µM; with HS 578T breast, 50.9 µM; in the test on SNB-75 CNS, 25.7 µM; with OVCAR-4 ovarian, 33.4 µM; in the test on 786-0 renal it was 28.8 µM; in the test on U251 CNS it was 24.5 µM. Also, the total growth inhibition concentration (TGI) turned out to be 39 µM with IGROV1 ovarian, 29.1 µM in the test on MDA-MB-435, 29.2 µM with HCC-2998 colon and 35.4 µM in the test on T-47D breast.
Consider `Cc1ccc(-c2cn3c(nc4ccccc43)c(C)n2)cc1`, for which the TGI with CCRF-CEM leukemia was > 100 µM; in the test on HS 578T breast, > 100 µM; in the test with SNB-75 CNS, > 87.6 µM; with OVCAR-4 ovarian, > 100 µM; in the test with 786-0 renal, > 75.5 µM; in the test on U251 CNS it was > 87.7 µM. The TGI was > 31.6 µM in the test with IGROV1 ovarian, 97 µM with MDA-MB-435, > 100 µM in the test with HCC-2998 colon and > 30.1 µM in the test on T-47D breast.
For `CCC1(CC)C(=O)N(C(=O)c2ccc(Cl)cc2)N(C(=O)c2ccccc2Cl)C1=O`, the total growth inhibition concentration (TGI) in the test on CCRF-CEM leukemia, in the test with HS 578T breast, in the test with SNB-75 CNS, in the test on OVCAR-4 ovarian, with 786-0 renal and with U251 CNS was > 100 µM each time. In addition, the TGI with IGROV1 ovarian is 16.3 µM; in the test with MDA-MB-435, 43.9 µM; in the test with HCC-2998 colon, > 100 µM; in the test with T-47D breast it was > 100 µM.
Take `COc1cc(C=Nc2ccc(Oc3ccc(Cl)cc3)c(Cl)c2)cc(OC)c1OC`: the TGI amounted to 66.4 µM in the test with CCRF-CEM leukemia; 41.6 µM with HS 578T breast; 57.9 µM in the test on SNB-75 CNS; 62.3 µM with OVCAR-4 ovarian; 29.6 µM with 786-0 renal; 40.8 µM with U251 CNS. In addition, the concentration for total growth inhibition (TGI) in the test on IGROV1 ovarian is 67.1 µM; in the test with MDA-MB-435, > 100 µM; with HCC-2998 colon it was 40.3 µM; in the test on T-47D breast, 39.7 µM.
`CN(C)CCCN1c2ccc3ccccc3c2Sc2cccc(Cl)c21`: the TGI stood at 3.52 µM in the test on CCRF-CEM leukemia; 21.7 µM in the test with HS 578T breast; 12 µM in the test with SNB-75 CNS; 13.8 µM with OVCAR-4 ovarian; 8.84 µM with 786-0 renal; 4.72 µM in the test with U251 CNS. For the same compound, the TGI with IGROV1 ovarian came out at 5.85 µM; in the test on MDA-MB-435 it was 3.88 µM; in the test with HCC-2998 colon, 2.96 µM; in the test with T-47D breast, 7.17 µM.
